Measurements as given in patent US20220249661A1, “Pharmaceutical composition for preventing or treating inflammatory bowel disease comprising Tumor necrosis factor alpha inhibitor and Prostaglandin E2” (SAMSUNG LIFE PUBLIC WELFARE FOUNDATION, priority 2021, published 2022).

Columns and labels:
Assay type in all cases: cell-based, human
[1] = system: normal person-derived intestinal organoids; assay: Organoid reconstitution assay, normal person-derived organoids
Method: (§1) In order to evaluate the organoid-forming ability of intestinal crypts obtained from normal persons and patients with Crohn's disease, 100 intestinal crypts per 25 μL of Matrigel were dispensed into maintenance medium. The culture medium was changed once every two days. The number of viable organoids and enteroids per well was counted under a microscope (CK40, Olympus). The organoid-forming efficiency was calculated as the ratio of available organoids per 100 intestinal crypts. The organoid reconstitution rate was calculated by counting the number of organoids on day 4 and the number of organoids on day 10. Statistical analysis was performed by ANOVA using Bonferroni's multiple comparison test (* p<0.05, ** p<0.01 and *** p<0.001).
(§2) Normal person-derived organoids were cultured in a maintenance medium for 2 days to obtain a stable number of organoids, and then the medium was replaced with a differentiation medium every 2 days. For each experimental group, human recombinant TNFα and PGE2 (Cayman Chemical Company) or infliximab were added to the culture medium every day. The organoid reconstitution rate was calculated by comparing the number of organoids on day 4 and the number of organoids on day 10.

[2] = system: Crohn's disease patient-derived intestinal organoids; assay: Organoid reconstitution assay, Crohn's disease patient-derived organoids
Method: as §1, §2
(§3) FIGS. 20 and 21 show the results of analyzing the changes in organoid reconstitution rate and cell viability of TNFα-treated Crohn's disease patient-derived organoids by infliximab and PGE2. Cases in need of actual infliximab treatment or potential PGE2 treatment are Crohn's disease patients, and based on the information obtained from the normal person-derived organoids, the effects of infliximab and PGE2 on Crohn's disease patient-derived organoids with reduced intestinal epithelial regeneration ability were evaluated.

[3] = system: normal person-derived intestinal organoids; assay: MTT assay (cell viability), normal person-derived organoids
Method: (§4) To evaluate the cell viability of organoids, 100 μL of basal medium containing MTT (3-[4,5-dimethylthiazol-2-yl]-2,5-diphenyltetrazolium bromide) (Sigma-Aldrich) at a concentration of 500 μg/ml was added to each well of a culture plate and incubated for 2 hours at 37° C. To remove the medium and dissolve the Matrigel, 10 μL of 21 SDS (sodium dodecyl sulfate) solution was added thereto, followed by incubation for 2 hours. After adding 100 μL of detergent reagent, the organoids were further incubated for 1 hour, and the absorbance was measured at 562 nm for quantification. Statistical analysis was performed by ANOVA using Bonferroni's multiple comparison test (* p<0.05, ** p<0.01 and *** p<0.001).
(§5) To evaluate cell viability, MTT assay was performed in the same manner as in Experimental Example 2. Statistical analysis was performed by ANOVA using Bonferroni's multiple comparison test (* p<0.05, ** p<0.01 and *** p<0.001).

[4] = system: Crohn's disease patient-derived intestinal organoids; assay: MTT assay (cell viability), Crohn's disease patient-derived organoids
Method: as §4, §5, §3

[5] = system: Crohn's disease patient-derived organoids; assay: Wound healing assay, two-dimensional Crohn's disease patient-derived organoid monolayers
Method: (§6) For matrix coating, each well of the 24-well plate was coated at 37° C. for 1 hour with 500 μL of Matrigel diluted at a concentration of 51 in the basal medium. For two-dimensional culture, organoids in the three-dimensional culture were digested into single cells using TrypLE Express (Thermo Fisher). The digested cells were resuspended in the basal medium and seeded into Matrigel-coated wells.
(§7) For wound healing assay, 5×10^4 cells were seeded in wells of a 24-well plate containing inserts of CytoSelect™ 24-Well Wound Healing Assay. The two-dimensional organoid monolayers were cultured in maintenance medium until confluence was reached. The inserts were then carefully removed to produce 0.9-mm-diameter wounds, and 500 μL of fresh differentiation medium was added to each well. Then, the cells in the wound were monitored using a phase-contrast microscope at 0, 4, 8, 16, and 24 hours. At each time point, the area of the non-healed wound was measured in 3 different regions. Statistical analysis was performed by ANOVA using Bonferroni's multiple comparison test (* p<0.05, ** p<0.01 and *** p<0.001).
In addition, wound healing assay was performed in the same manner as in Experimental Example 7.
For the Crohn's disease patient-derived organoids of each experimental group, 30 ng/mL of human recombinant TNFα, or 10 nM of PGE2, and 1 or 10 μg/mL of infliximab were added to the culture medium daily. Statistical analysis was performed by ANOVA using Bonferroni's multiple comparison test (** p<0.01 and *** p<0.001).

LGR5 [6] = assay: qPCR for LGR5 in Crohn's disease patient-derived organoids; settings: TNFα 0, 30 or 100 ng/mL + high concentration (infliximab 10 μg/mL or PGE2 10 nM)
Method: For the Crohn's disease patient-derived organoids of each experimental group, 0, 30 or 100 ng/mL of human recombinant TNFα, 0, 5 or 10 nM of PGE2, and 0, 1 or 10 μg/mL of infliximab were added to the culture medium daily.
Total RNA was extracted from intestinal organoids using the RNeasy Mini Kit (QIAGEN). One-step qPCR was performed using the following primers together with One Step PrimeScript™ III RT-qPCR Mix (Takara): LGR5 primers (forward: 5′-[…]-3′, reverse: 5′-[…]-3′). Statistical analysis was performed by ANOVA using Bonferroni's multiple comparison test (* p<0.05 and *** p<0.001).

LGR5 [7] = assay: FACS analysis for LGR5 in Crohn's disease patient-derived organoids; settings: 30 ng/mL TNFα + high concentration (infliximab 10 μg/mL or PGE2 10 nM)
Method: For the Crohn's disease patient-derived organoids of each experimental group, 30 ng/mL of human recombinant TNFα, or 10 nM of PGE2, and 1 or 10 μg/mL of infliximab were added to the culture medium daily.
To prepare single-cell suspensions from organoids, organoids were incubated with TrypLE Express in a water bath at 37° C. for 30 minutes. Then, the cells were washed with basal medium and collected by filtration through a 40-μm cell strainer. Flow cytometry for detecting the marker was performed using 1×10^5 cells. Cells were incubated with human Lgr5/GPR49 antibody (R&D Systems) in FACS buffer for 30 min. Unbound antibodies were washed out, and the cells were incubated with Alexa Fluor 488-conjugated anti-mouse immunoglobulin G secondary antibody (Thermo Fisher) for 30 minutes. The cells were then washed, resuspended in FACS buffer, and analyzed on the FACS Aria III instrument (BD Biosciences) to evaluate LGR5+ ISCs population.

[8] = system: normal person-derived organoids; assay: EdU assay (cell proliferation), normal person-derived organoids; settings: 30 ng/mL TNFα vs TNFα-untreated
Method: (§8) To evaluate the cell proliferation of organoids, each organoid was incubated for 2 hours in a medium containing 10 μM of EdU (5-ethynyl-2′-deoxyuridine) (Abcam), and then fixed with cold 41 paraformaldehyde (Biosesang). EDU incorporation in DNA was detected using Click-iT™ EdU Alexa Fluor® 488 imaging kit (Thermo Fisher). The number of EDU positive (+) cells in the organoids was counted using a confocal microscope (LSM 800, Carl Zeiss). Statistical analysis was performed by ANOVA using Bonferroni's multiple comparison test (* p<0.05 and *** p<0.001).

[9] = system: Crohn's disease patient-derived organoids; assay: EdU assay (cell proliferation), Crohn's disease patient-derived organoids; settings: 30 ng/mL TNFα; vs normal person-derived organoids
Method: as §8

[10] = system: normal person-derived organoids; assay: Wound healing assay, two-dimensional normal person-derived organoid monolayers; settings: TNFα-treated; 0-24 hours
Method: as §6, §7

[11] = system: normal person-derived organoids; assay: Double immunofluorescence for CC3 and TUNEL, normal person-derived organoids; settings: 30 ng/mL TNFα vs TNFα-untreated
Method: (§9) Cell death by TNFα occurs through apoptosis or necroptosis. CC3 (cleaved caspase-3) is a marker capable of detecting cells in which apoptosis has occurred, and TUNEL staining can detect DNA fragmented due to apoptosis, and thus detect cells in which apoptosis or necroptosis has occurred. Therefore, CC3+ and TUNEL+ cells are cells in which apoptosis has occurred, and CC3− and […] cells are cells in which necroptosis has occurred.
(§10) CC3 staining was performed using primary rabbit antibodies specific for CC3 and a goat anti-rabbit secondary antibody conjugated to Alexa 594 fluorochrome (red fluorescence). In TUNEL staining, In Situ Cell Death Detection Kit (Merck) was used for the same sections in CC3 staining, and then fluorescein-labeled dUTP (green fluorescence) was used. DAPI was used to stain intracellular DNA. Statistical analysis was performed by ANOVA using Bonferroni's multiple comparison test (*** p<0.001).

[12] = system: Crohn's disease patient-derived organoids; assay: Double immunofluorescence for CC3 and TUNEL, Crohn's disease patient-derived organoids; settings: 30 ng/mL TNFα; vs normal person-derived organoids
Method: as §9, §10

LGR5 [13] = assay: Immunohistochemistry, LGR5+ cells per organoid, normal person-derived organoids; settings: TNFα-treated vs TNFα-untreated
Method: (§11) After removing the culture medium, the organoids were washed with PBS and fixed in cold 4% paraformaldehyde at room temperature for 30 minutes. The fixed organoids were washed with PBS and embedded in HistoGel (Thermo Fisher). HistoGel blocks were used for paraffin embedding and sectioned for histologic examination and IHC. Histologic evaluation was performed using hematoxylin-eosin-stained sections. After heating-induced epitope retrieval with citrate buffer, IHC was performed using the following antibodies: cleaved caspase-3 (Asp175, 1:200 dilution, Cell Signaling), E-cadherin (1:100 dilution, Abcam), and LGR5 (1:400 dilution, Abcam). The number of LGR5+ cells per organoid in each of the TNFα-treated group (n=10) and the TNFα-untreated group (n=10) was counted, and statistical analysis was performed by ANOVA using Bonferroni's multiple comparison test (*** p<0.001).

LGR5 [14] = assay: Immunohistochemistry, LGR5+ cells per organoid, Crohn's disease patient-derived organoids; settings: TNFα-treated; vs normal person-derived organoids
Method: as §11

[15] = TNFα 30 and 100 ng/mL + high concentration (infliximab 10 μg/mL or PGE2 10 nM)
[16] = 30 or 100 ng/mL TNFα + high concentration (infliximab 10 μg/mL, PGE2 10 nM)
[17] = 30 ng/mL TNFα + high concentration (infliximab 10 μg/mL or PGE2 10 nM), after 16 hours
[18] = 0, 30 and 100 ng/mL TNFα, dependence on concentration
[19] = 30 or 100 ng/mL human recombinant TNFα
[20] = 30 ng/mL TNFα vs TNFα-untreated

## CCCCC[C@H](O)/C=C/[C@H]1[C@H](O)CC(=O)[C@@H]1C/C=C\CCCC(=O)O [PGE2, prostaglandin E2]
[1]; 100 ng/mL TNFα + 10 nM PGE2
  organoid reconstitution rate: significantly improved compared to when the organoids were not treated with PGE2
[1]; [15]
  organoid reconstitution rate: the restoration of the organoid reconstitution rates was improved
[2]; [16]
  organoid reconstitution rate: levels similar to those of TNFα-untreated normal person-derived organoids
[3]; 100 ng/mL TNFα + 10 nM PGE2
  cell viability (MTT): significantly improved compared to when the organoids were not treated with PGE2
[4]; [16]
  cell viability (MTT): levels similar to those of TNFα-untreated normal person-derived organoids
[5]; [17]
  unhealed wound area: reduced, compared to when the organoids were treated with TNFα alone
LGR5 [6]
  LGR5 expression (qPCR): increased
LGR5 [7]
  LGR5 expression (FACS, LGR5+ ISCs population): increased

## TNFα
[1]; [18]
  organoid reconstitution rate: decreased
[1]; 30 ng/mL TNFα vs not treated, differentiation medium 10 days, jejunum and ileum
  organoid reconstitution rate: decreased
[2]; 30 ng/mL TNFα, differentiation medium 10 days, jejunum and ileum
  organoid reconstitution rate: decreased compared to those of the normal person-derived organoids
[2]; [19]
  organoid reconstitution rate: decreased in a concentration-dependent manner
[3]; [18]
  cell viability (MTT): also decreased
[3]; [20]
  cell viability (MTT): decreased in both the jejunum and the ileum
[4]; [20]
  cell viability (MTT): decreased in both the jejunum and the ileum
[4]; [19]
  apoptosis: increased in a concentration-dependent manner
[5]; TNFα alone, 0-24 hours
  unhealed wound area: no significant decrease in the unhealed wound area even over time
[8]
  number of EdU+ cells: TNFα-untreated organoids increased compared to that in TNFα-treated organoids
[9]
  number of EdU+ cells: decreased compared to that of the normal person-derived organoids
[10]
  unhealed wound area: the wound area was recovered after 16 hours
[11]
  number of CC3−, TUNEL+ and CC3+, TUNEL+ cells (cell death): increased
[12]
  number of CC3−, TUNEL+ and CC3+, TUNEL+ cells (cell death): necroptosis more actively occurred than that in the normal person-derived organoids
LGR5 [13]
  number of LGR5+ cells per organoid: increased
LGR5 [14]
  number of LGR5+ cells per organoid: decreased in the Crohn's disease patient-derived organoids compared to the normal person-derived organoids

## infliximab
[1]; [15]
  organoid reconstitution rate: the restoration of the organoid reconstitution rates was improved
[2]; [16]
  organoid reconstitution rate: levels similar to those of TNFα-untreated normal person-derived organoids
[2]; TNFα + low concentration infliximab (1 μg/mL) alone
  organoid reconstitution rate: did not completely restore
[4]; [16]
  cell viability (MTT): levels similar to those of TNFα-untreated normal person-derived organoids
[5]; [17]
  unhealed wound area: reduced, compared to when the organoids were treated with TNFα alone
LGR5 [6]
  LGR5 expression (qPCR): no difference in LGR5 expression depending on the concentration of TNFα
LGR5 [7]
  LGR5 expression (FACS, LGR5+ ISCs population): no difference in LGR5 expression from when the organoids were treated with TNFα
